Series [1] has as its system MRSA ATCC 33591. The series is described as follows: microbe, parasite or virus in culture. Format: cell-based, Staphylococcus aureus. The following applies: Table 2; MHB with 0.002% polysorbate 80, 37 °C, 24 h, two independent duplicates. How it is done:
(§1) MICs were performed as previously reported 4. For MIC testing all peptides were dissolved in DMSO.
(§2) Bacterial cultures were grown overnight on Mueller-Hinton Agar (MHA) plates and adjusted to a final inoculum of 10^5 – 10^6 CFU/mL. 100 µl of ino culum in Meuller -Hinton broth (MHB) was mixed with equal volume of peptides (dissolved in MHB) at 2x their concentration in a 96 well plate . For daptomycin MIC determination, the same protocol was followed with the addition of 50 mg/L calcium chloride to the medium. MIC values were determined in the media contain ing polysorbate 80 (0.002%, v/v) to prevent non -specific adsorption of the peptides to plastic surfaces. The final peptides concentrations ranged from 0.0625 – 32 µg/mL. The 96 well plates were then incubated at 37 °C for 24 h. All the experiments were performed in two independent duplicates and the MIC was determined as the lowest concentration in which no visible growth was observed. […]

Series [2] relates to Multidrug-Resistant (MDR) E. faecium. The series is described as follows: microbe, parasite or virus in culture. How it is done:
(§3) We further evaluated analogue 12 against multidrug-resistant (MDR) strains of S. aureus (acquired from the NARSA collection) and MDR E. faecium (acquired from International Health Management Associates, IHMA, Europe Sarl), comparing its activity to various classes of clinically used antibiotics (Table ).
as §1
(§4) Bacterial cultures were grown overnight on Mueller-Hinton Agar (MHA) plates and adjusted to a final inoculum of 10^5 – 10^6 CFU/mL. 100 µl of ino culum in Meuller -Hinton broth (MHB) was mixed with equal volume of peptides (dissolved in MHB) at 2x their concentration in a 96 well plate . For daptomycin MIC determination, the same protocol was followed with the addition of 50 mg/L calcium chloride to the medium. MIC values were determined in the media contain ing polysorbate 80 (0.002%, v/v) to prevent non -specific adsorption of the peptides to plastic surfaces. The final peptides concentrations ranged from 0.0625 – 32 µg/mL. The 96 well plates were then incubated at 37 °C for 24 h. All the experiments were performed in two independent duplicates and the MIC was determined as the lowest concentration in which no visible growth was observed.
(§5) Antibiotics MIC break points ( µg/mL)
(§6) Table. S4: Susceptibility cut-off values (MIC breakpoints) for various clinical antibiotics. […]

Series [3] concerns Multidrug-Resistant (MDR) S. aureus. The series is described as follows: microbe, parasite or virus in culture. The following applies: MHB, 0.002% polysorbate 80, 37 °C, 24 h, daptomycin with 50 mg/L calcium chloride. On the procedure:
as §3, §1, §4, §5, §6

The test system of series [4] is MDR clinical strains of S. aureus and E. faecium. Format: cell-based, Staphylococcus aureus; Enterococcus faecium. The conditions noted are these: range over 4 S. aureus and 3 E. faecium strains. How it is done:
as §1, §2

Series [5] has as its system HEK293T. The series is described as follows: Cytotoxicity, MTS-based assay. The series is classed as cell-based, human. The conditions noted are these: up to 50 μg/mL, 24 or 48 h, three independent experiments in triplicate. How it is done:
(§7) 4 Cytotoxicity evaluation of analogue 12. Human primary dermal fibroblasts (A), liver cell line HepG2 (B), and kidney cell line HEK293T (C) cells (5 × 10^3 cells/well in 96-well plates) were treated with increasing concentrations of analogue 12 or 1 μM staurosporine (STS, used as a positive toxicity control) for 24 or 48 h, as indicated. Viability of cells was determined using an MTS-based assay. Results (% cell viability) are the mean ± SD of three independent experiments performed in triplicate. (D) Freshly collected human red blood cells (RBCs) were exposed to increasing concentrations of 12 or Triton X-100 (TX), as indicated, for 1 h. Hemolytic activity (% hemolysis) was determined by spectrophotometrically measuring the release of hemoglobin compared to that with TX (used as a positive control). Results are the mean ± SD of 4 independent experiments performed in duplicate using blood samples from four different anonymous healthy donors. […]
(§8) Bacterial cultures were grown overnight on Mueller-Hinton Agar (MHA) plates and adjusted to a final inoculum of 10^5 – 10^6 CFU/mL. […] MIC values were determined in the media contain ing polysorbate 80 (0.002%, v/v) to prevent non -specific adsorption of the peptides to plastic surfaces. […] All the experiments were performed in two independent duplicates and the MIC was determined as the lowest concentration in which no visible growth was observed. […]
(In general: Tetrazolium dyes change colour on reduction, which living cells bring about.)

The subject of series [6] is HepG2. Kind of series: Cytotoxicity, MTS-based assay. Format: cell-based, human. The conditions noted are these: up to 50 μg/mL, 24 or 48 h, three independent experiments in triplicate. On the procedure:
as §7, §8

The structures appear in SMILES notation. ≈ marks a conversion by molar mass, not a printed value. Positions of bridges follow the written chain, without caps; N, C: chain ends. Non-standard residues stand in square brackets, D forms with d. Residues, ends and D or L forms follow the SMILES beside them. dCha = N[C@H](CC1CCCCC1)C(=O)O

For the molecule `CC(C)C[C@@H]1NC(=O)[C@H](C)NC(=O)[C@H](NC(=O)[C@H](CO)NC(=O)[C@@H](CCCCN)NC(=O)[C@@H](CC2CCCCC2)NC(=O)[C@@H](N)Cc2ccccc2)[C@H](C)OC(=O)[C@H](CC(C)C)NC1=O` [analogue 12, Leu2Cha–Novltex] (H-F[dCha][dK]S[dT]ALL; ester 5-C), in series [1], the “MIC against MRSA ATCC 33591” value amounted to 0.25 µg/mL (≈ 0.273 µM). Besides, the “MIC, Enterococcus faecium 1563254” value in series [2] (MDR clinical isolate 1563254, MHB, 0.002% polysorbate 80, 37 °C, 24 h, daptomycin with 50 mg/L calcium chloride) was 0.25 µg/mL (≈ 0.273 µM). Moreover, in series [2] (MDR clinical isolate 1581582, MHB, 0.002% polysorbate 80, 37 °C, 24 h, daptomycin with 50 mg/L calcium chloride), the “MIC, Enterococcus faecium 1581582” value amounted to 0.5 µg/mL (≈ 0.547 µM). Also, in series [2] (MDR clinical isolate 1766686, MHB, 0.002% polysorbate 80, 37 °C, 24 h, daptomycin with 50 mg/L calcium chloride), the “MIC, Enterococcus faecium 1766686” value was determined as 0.125 µg/mL (≈ 0.137 µM). Also, in series [2] (range over the three clinical isolates), the “MIC range against MDR E. faecium strains” value lay in the range of 0.125 to 0.5 µg/mL. In addition, in series [3] (MDR strain NR 45914), the “MIC, Staphylococcus aureus NR 45914” value came to 0.125 µg/mL (≈ 0.137 µM). In addition, the “MIC, Staphylococcus aureus NR 45926” value in series [3] (MDR strain NR 45926) amounted to 0.125 µg/mL (≈ 0.137 µM). Moreover, in series [3] (MDR strain NR 45930), the “MIC, Staphylococcus aureus NR 45930” value amounted to 0.125 µg/mL (≈ 0.137 µM). Further, the “MIC, Staphylococcus aureus NR 46062” value in series [3] (MDR strain NR 46062) stood at 0.063 µg/mL (≈ 0.0689 µM). In addition, in series [4], the “MIC against both groups of MDR clinical strains” value fell in the range of 0.063 to 0.5 µg/mL. Besides, the “cytotoxicity (cell viability), HEK293T” value in series [5] is recorded as “no major cytotoxicity”. Moreover, the “cytotoxicity (cell viability), HepG2” value in series [6] is “no major cytotoxicity”.

These data come from article PMC12481569, “Novltex: A New Class of Antibiotics with Potent Activity against Multidrug-Resistant Bacterial Pathogens–Design, Synthesis, and Biological Evaluation” (Journal of Medicinal Chemistry, 2025).
